Measurements as given in article PMC9450471 (Computational Biology and Chemistry, 2022).
Where “and” joins values, the source holds several entries; their conditions need not be identical. Equal values may be shown once. Read-outs that look alike come from different tables or passages of the source.

System: SARS-CoV-2 (Omicron variant, B.1.1.529/BA.5 sublineage)
Type: cell-based
Settings: for time at which utmost effectiveness against the Omicron variant is reached: after administration/treatment starter

Compound	100% CPE Inhibitory Concentration (CPEIC100)	other results
O=c1[nH]cnc2c([C@@H]3N[C@H](CO)[C@@H](O)[C@H]3O)c[nH]c12 [Forodesine]	1.6 ± 0.065 µM	time at which utmost effectiveness against the Omicron variant is reached: 3.5 to 9.5 h; 100% CPE Inhibitory Concentration (CPEIC100) (listed as forodesine): 1.6 µM
CC(C)Nc1nc2cc(Cl)c(Cl)cc2n1[C@H]1O[C@@H](CO)[C@H](O)[C@@H]1O [Maribavir]	7.986 ± 0.277 µM	
CC(C)C(=O)OC[C@H]1O[C@@H](n2ccc(NO)nc2=O)[C@H](O)[C@@H]1O [Molnupiravir]	6.19 ± 0.275 µM	100% CPE Inhibitory Concentration (CPEIC100) (listed as molnupiravir): 6.19 µM
COc1nc(N)nc2c1ncn2[C@@H]1O[C@H](CO)[C@@H](O)[C@@H]1O [Nelarabine]	4.105 ± 0.149 µM	
CCC(CC)COC(=O)[C@H](C)N[P@](=O)(OC[C@H]1O[C@@](C#N)(c2ccc3c(N)ncnn23)[C@H](O)[C@@H]1O)Oc1ccccc1 [Remdesivir]	5.883 ± 0.255 µM	100% CPE Inhibitory Concentration (CPEIC100) (listed as remdesivir): 5.883 µM
CC(C)=CCNc1ncnc2c1ncn2[C@@H]1O[C@H](CO)[C@@H](O)[C@H]1O [Riboprine, N ^6-(2-Isopentenyl)adenosine]	1.11 µM and 1.11 ± 0.047 µM	time at which utmost effectiveness against the Omicron variant is reached: 3.5 to 9.5 h
OC[C@H]1O[C@@H](n2cnc3c(N[C@@H]4CCOC4)ncnc32)[C@H](O)[C@@H]1O [Tecadenoson]	7.645 ± 0.24 µM	
Nc1ncnc2c1ncn2[C@@H]1O[C@H](CO)[C@@H](O)[C@@H]1O [Vidarabine, Arabinosyladenine]	8.042 ± 0.288 µM	
